Test results: article PMC12203577, “Molecular Basis of Pseudomonas syringae pv actinidiae Levansucrase Inhibition by a Multivalent Iminosugar” (Journal of Agricultural and Food Chemistry, 2025)
Where “and” joins values, the source holds several entries; their conditions need not be identical. Equal values may be shown once.

Key:
Lscβ = target: T1, Lscβ (Pseudomonas syringae pv. actinidiae, UniProt A0A2V0R8Q9); experiment: Sucrose hydrolysis assay on recombinant Lscβ (DNS glucose quantification); type: biochemical, Pseudomonas syringae pv actinidiae biovar 3 (Psa3); settings: for IC50 / % Residual activity (sucrose hydrolysis), Lscβ: 60 mM sucrose; for % Residual activity (sucrose hydrolysis), Lscβ: 100 μM iminosugar
T1 construct: 6His-tag (TEV-cleavable) (cleaved yes); made in house; host or cells: E. coli BL21 (DE3)
Procedure: (§1) Lscβ and Lscγ were produced and purified as reported by Luti et al. 2021. Briefly, the lscβ and lscγ genes of Psa3 KL103 were cloned in the pNIC28-Bsa4 plasmid and used to transform E. coli BL21 (DE3) cells (New England Biolabs). At A 600 (absorbance at 600 nm) = 0.6, protein expression was induced by 0.4 mM IPTG for 20 h at 18 °C. Then, cells were harvested by […], and recombinant proteins were purified using IMAC Sepharose High Performance (Ge Healthcare) charged with Ni^2+. Subsequently, the proteins were subjected to TEV (Tobacco Etch Virus protease) treatment to remove the 6His-tag and further purified by gel chromatography on a HiLoad 16/600 Superdex 200 pg column driven by an Akta Pure 25 L system (GE Healthcare, Waukesha, WI, USA). Pure proteins were stored in 10 mM Tris/HCl at pH 7.0 at −80 °C until further analysis.
The enzymatic assays to detect the inhibitory potential of the compounds on sucrose hydrolysis activity of Lscβ and Lscγ were performed according to Luti et al. 2021 in a total volume of 100 μL, using a Bis/Tris buffer (50 mM, pH 7.0). […] After the reactions were stopped, glucose concentration was measured using the DNS (3,5-dinitrosalicylic acid) method to determine spectrophotometrically the inhibitory activity of each compound. The enzymatic activity, measured as μmol/min·mL, was expressed as %residual enzymatic activity=[Ai/Ac]×100 , where A i is the absorbance of the samples with the inhibitors and A c is the absorbance of the control.
(§2) The inhibition levels of compounds 1–4 were analyzed by measuring their IC50. To quantify the IC50 values, we set up different enzymatic reactions at various concentrations of the inhibitor, and we monitored the effects of such concentrations on the enzymatic activity. The assay system was prepared as described above using a Bis/Tris buffer at pH 7.0 and 60 mM sucrose as the substrate. The inhibitor concentrations tested for both enzymes were 0, 0.01, 0.1, 0.5, 1, 10, 25, 50, 100, 200, 400, and 800 μM. Glucose released by the two enzymes was quantified using the DNS method and a microplate spectrophotometer. IC50 was defined as the concentration of a compound causing 50% inhibition, and it was calculated by drawing a dose–response graph for each compound using GraphPad Prism version 8.0 for Windows, GraphPad Software, San Diego, California, USA (www.graphpad.com). The response was expressed on the Y-axis as a percentage of enzymatic activity, and the […].
(§3) The inhibitory mechanism of TPIS (3) was determined by studying the dependence between the main kinetic parameters (K Mapp and V maxapp) and the inhibitor concentrations. Data obtained were fitted using the Michaelis–Menten equation and a nonlinear fitting software. Then, data were analyzed using the double reciprocal plot (Lineweaver–Burk method). Secondary plots were used to calculate the K i values by using GraphPad Prism version 8.0. In detail, the inhibitory mechanism of TPIS (3) was analyzed using 0, 25, 60, and 100 μM inhibitors for Lscβ and 0, 10, 25, and 100 μM for Lscγ. For each concentration, we set the sucrose concentration to 0, 10, 30, 50, 100, 200, 400, and 600 mM, and reactions were performed as previously described using an enzyme concentration of 0.02 μg/μL. After the reactions were stopped, glucose from enzymatic hydrolysis was quantified using the DNS method.

Lscγ [1] = target: T2, Lscγ (Pseudomonas syringae pv. actinidiae, UniProt A0A2V0R8Y2); experiment: Sucrose hydrolysis assay on recombinant Lscγ (DNS glucose quantification); type: biochemical, Pseudomonas syringae pv actinidiae biovar 3 (Psa3); settings: for % Residual activity (sucrose hydrolysis), Lscγ: 100 μM iminosugar; for % Residual activity (sucrose hydrolysis), Lscγ / IC50: 60 mM sucrose
T2 construct: 6His-tag (TEV-cleavable) (cleaved yes); made in house; host or cells: E. coli BL21 (DE3)
Procedure: as §1
The enzymatic assays to detect the inhibitory potential of the compounds on sucrose hydrolysis activity of Lscβ and Lscγ were performed according to Luti et al. 2021 in a total volume of 100 μL, using a Bis/Tris buffer (50 mM, pH 7.0). The experiments were performed at an enzyme concentration of 0.03 μg/μL with 60 mM sucrose and a final inhibitor concentration (compounds 1–4) of 100 μM, on a 10-min time frame. After the reactions were stopped, glucose concentration was measured using the DNS (3,5-dinitrosalicylic acid) method to determine spectrophotometrically the inhibitory activity of each compound. The enzymatic activity, measured as μmol/min·mL, was expressed as %residual enzymatic activity=[Ai/Ac]×100 , where A i is the absorbance of the samples with the inhibitors and A c is the absorbance of the control.
as §2, §3

Lscγ [2] = target: T2, Lscγ; experiment: Levan synthesis turbidity assay with Lscγ; type: biochemical, Pseudomonas syringae pv actinidiae biovar 3 (Psa3)
Procedure: (§4) Inhibition of levan synthesis was monitored using a turbidity assay on a microtiter plate as reported by Luti et al. 2021 with slight modifications. The reaction was performed at 37 °C in 200 μL of 50 mM sodium acetate buffer at pH 5.0 containing 60 mM sucrose and 10 μg of purified Lscγ protein per mL of reaction mixture. The turbidity of the samples at 400 nm was recorded every 5 min using a BioTek Synergy H1 Hybrid Multimode Reader. The percent inhibition was determined at 60 min of incubation, at the maximum absorbance, and was determined as defined in the previous section, Sucrose Hydrolysis Assay. For the IC50 determinations, we used a 0–200 μM TPIS (3) concentration and defined the activity as previously reported. For macroscopic evaluation of levan synthesis inhibition, a 10 μL drop of 1 μg/μL Lscγ was applied on an agar sucrose (5% w/v) plate alone or with 100 μM TPIS (3). A picture was taken after 24 h at 4 °C.

KL103 whole cell lysate [3] = experiment: Macroscopic levan synthesis by lysate on agar sucrose plate, KL103; type: biochemical, P. syringae pv actinidiae biovar 3; settings: 100 μM, 72 h
Procedure: (§5) To extract total protein, cell pellets were resuspended in 1 mL of ice-cold RIPA Buffer with Protease Inhibitors Cocktail, and cells were lysed by sonication using a Fisher Scientific Model 120 Sonic Dismembrator. The sonication step was carried out on ice with three pulses of 15 s at 30% amplitude, each followed by 30 s cooldown. Sonicated samples were cleared by centrifugation for 15 min at 15,000 × g at 4 °C. The pellet was discarded, while the supernatant was collected and stored at −20 °C for further analysis. The hydrolysis enzymatic reaction was carried out as previously described with 60 mM sucrose and 7 μL of cell lysate for 1.5 h. After the samples were boiled, glucose was quantified using the DNS method. For macroscopic evaluation of levan synthesis inhibition, a 10 μL drop of lysates was applied on an agar sucrose (5% w/v) plate alone or with 100 μM TPIS (3). A picture was taken after 72 h at 4 °C.

[4] = system: CFBP1390 whole cell lysate; experiment: Sucrose hydrolysis by whole cell lysate, CFBP1390; type: biochemical, P. syringae pv phaseolicola; settings: 100 μM, 60 mM sucrose
Procedure: (§6) The strains CFBP8414 (P. syringae pv actinidiae biovar 5) and CFBP1390 (P. syringae pv phaseolicola) were purchased from the CIRM-CFBP French Collection for Plant Associated Bacteria, while KL103 (P. syringae pv actinidiae biovar 3) was isolated in Tuscany in 2015, as reported by Campigli et al., 2023.
(§7) Bacterial cells were grown in 50 mL of Nutrient Sucrose (5% w/v) for 48 h at 180 rpm at 27 °C. Cell suspensions were diluted to an A 600 of 1 (10^7 cfu/mL) in water, and 1 mL aliquots were centrifuged for 5 min at 15,000 × g at 4 °C. The supernatant was discarded, while the pellet was stored at −20 °C for further analysis.
as §5, with “For macroscopic evaluation of levan synthesis inhibition, a 10 μL drop of lysates was applied on an agar sucrose (5% w/v) plate alone or with 100 μM TPIS (3). A picture was taken after 72 h at 4 °C.” left out

KL103 whole cell lysate [5] = experiment: Sucrose hydrolysis by whole cell lysate, KL103; type: biochemical, P. syringae pv actinidiae biovar 3; settings: 100 μM, 60 mM sucrose
Procedure: as §6, §7
as §5, with “For macroscopic evaluation of levan synthesis inhibition, a 10 μL drop of lysates was applied on an agar sucrose (5% w/v) plate alone or with 100 μM TPIS (3). A picture was taken after 72 h at 4 °C.” left out

[6] = system: CFBP8414 whole cell lysate; experiment: Macroscopic levan synthesis by lysate on agar sucrose plate, CFBP8414; type: biochemical, P. syringae pv actinidiae biovar 5; settings: 100 μM, 72 h
Procedure: as §5

[7] = system: CFBP8414 whole cell lysate; experiment: Sucrose hydrolysis by whole cell lysate, CFBP8414; type: biochemical, P. syringae pv actinidiae biovar 5; settings: 100 μM, 60 mM sucrose
Procedure: as §6, §7
as §5, with “For macroscopic evaluation of levan synthesis inhibition, a 10 μL drop of lysates was applied on an agar sucrose (5% w/v) plate alone or with 100 μM TPIS (3). A picture was taken after 72 h at 4 °C.” left out

[8] = system: CFBP1390 whole cell lysate; experiment: Macroscopic levan synthesis by lysate on agar sucrose plate, CFBP1390; type: biochemical, P. syringae pv phaseolicola; settings: 100 μM, 72 h
Procedure: as §5

Lscγ [9] = target: T2, Lscγ; experiment: Macroscopic evaluation of levan synthesis by Lscγ on agar sucrose plate; type: biochemical, Pseudomonas syringae pv actinidiae biovar 3 (Psa3); settings: 100 μM, 10 μL drop of 1 μg/μL Lscγ, 24 h
Procedure: as §4

Jack bean α-mannosidase = settings: cited from earlier work

T1 sequence (A0A2V0R8Q9 whole entry): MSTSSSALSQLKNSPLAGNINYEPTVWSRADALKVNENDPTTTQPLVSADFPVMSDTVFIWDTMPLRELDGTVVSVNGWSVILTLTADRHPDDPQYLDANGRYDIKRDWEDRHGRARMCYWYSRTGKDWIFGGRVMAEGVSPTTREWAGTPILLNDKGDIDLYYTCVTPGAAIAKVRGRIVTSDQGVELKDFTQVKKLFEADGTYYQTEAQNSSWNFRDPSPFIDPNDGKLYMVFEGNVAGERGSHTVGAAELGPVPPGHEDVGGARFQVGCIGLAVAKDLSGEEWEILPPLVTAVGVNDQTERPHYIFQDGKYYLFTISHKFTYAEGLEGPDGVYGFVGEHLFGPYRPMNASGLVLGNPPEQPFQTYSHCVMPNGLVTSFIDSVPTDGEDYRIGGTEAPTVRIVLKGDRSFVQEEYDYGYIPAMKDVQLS
T2 sequence (A0A2V0R8Y2 whole entry): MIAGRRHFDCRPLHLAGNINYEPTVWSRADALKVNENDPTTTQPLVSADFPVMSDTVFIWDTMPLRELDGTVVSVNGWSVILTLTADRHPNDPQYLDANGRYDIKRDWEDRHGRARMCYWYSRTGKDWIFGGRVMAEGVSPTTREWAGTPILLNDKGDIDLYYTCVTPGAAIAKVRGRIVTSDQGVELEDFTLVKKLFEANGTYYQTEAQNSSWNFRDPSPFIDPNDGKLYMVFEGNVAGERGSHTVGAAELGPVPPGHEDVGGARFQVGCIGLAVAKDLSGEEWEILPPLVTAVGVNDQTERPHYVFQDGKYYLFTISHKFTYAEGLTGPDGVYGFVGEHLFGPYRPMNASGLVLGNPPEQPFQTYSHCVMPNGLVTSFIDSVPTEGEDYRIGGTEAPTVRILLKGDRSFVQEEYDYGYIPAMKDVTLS

## OC[C@H]1O[C@@](CO)(O[C@H]2O[C@H](CO)[C@@H](O)[C@H](O)[C@H]2O)[C@@H](O)[C@@H]1O [Sucrose]
Lscβ; substrate, pH 7.0
  KMapp of Lscβ for sucrose: KMapp (mM) 57 ± 11
Lscγ [1]; substrate, pH 7.0
  KMapp of Lscγ for sucrose: KMapp(mM) 59 ± 12

## OC[C@@H]1[C@@H](O)[C@H](O)CN1CCO[C@@H]1O[C@H](CO)[C@@H](O)[C@H](O)[C@H]1O [Compound 2]
Lscβ; pH 7.0
  IC50: > 100 µM
Lscγ [1]; pH 7.0
  % Residual activity (sucrose hydrolysis), Lscγ: 85 ± 8%
  IC50: > 100 µM

## OC[C@H]1NC[C@@H](O)[C@@H]1O [Compound 1, 1,4-dideoxy-1,4-imino-D-arabinitol]
Lscβ; pH 7.0
  % Residual activity (sucrose hydrolysis), Lscβ: 103 ± 6%
  IC50: > 100 µM
Lscβ; pH 7.0, listed as DAB-1 (1)
  % Residual activity (sucrose hydrolysis), Lscβ: do not affect Lscβ activity at all
Lscγ [1]; pH 7.0
  % Residual activity (sucrose hydrolysis), Lscγ: 101 ± 12%
  IC50: > 100 µM

## OC[C@@H]1[C@@H](O)[C@H](O)CN1CCCCCCn1cc(COCC(COCc2cn(CCCCCCN3C[C@@H](O)[C@H](O)[C@H]3CO)nn2)(COCc2cn(CCCCCCN3C[C@@H](O)[C@H](O)[C@H]3CO)nn2)COCc2cn(CCCCCCN3C[C@@H](O)[C@H](O)[C@H]3CO)nn2)nn1 [Compound 3]
Lscγ [2]; 100 μM, pH 5.0, 60 min
  residual polymerization activity (levan production), Lscγ: 46 ± 3%
Lscγ [2]; pH 5.0, 60 min of incubation, estimated, read-out: IC50, polymerization activity of Lscγ
  IC50: 37 µM
Lscβ; pH 7.0
  % Residual activity (sucrose hydrolysis), Lscβ: 49 ± 5%
  IC50: 22 µM and 22.4 µM
Lscβ; KMapp increases, Vmaxapp does not vary, versus sucrose
  inhibition mechanism, Lscβ: competitive inhibitor
Lscβ; secondary plot, pH 7.0, read-out: K i, sucrose hydrolysis, Lscβ
  Ki: 29 µM
Lscβ; sucrose hydrolysis
  rp/n (rp divided by valency), Lscβ: > 11
KL103 whole cell lysate [3]
  macroscopic levan synthesis, KL103 lysate: able to limit levan synthesis
[4]
  residual sucrose hydrolysis activity, CFBP1390 lysate: 55 ± 3%
KL103 whole cell lysate [5]
  residual sucrose hydrolysis activity, KL103 lysate: 54 ± 7%
[6]
  macroscopic levan synthesis, CFBP8414 lysate: able to limit levan synthesis
Lscγ [1]; pH 7.0
  % Residual activity (sucrose hydrolysis), Lscγ: 36 ± 5%
  IC50: 60.9 µM
Lscγ [1]; KMapp increases, Vmaxapp not affected, versus sucrose
  inhibition mechanism, Lscγ: competitive inhibitor
Lscγ [1]; secondary plot, pH 7.0, read-out: K i, sucrose hydrolysis, Lscγ
  Ki: 20 µM
[7]
  residual sucrose hydrolysis activity, CFBP8414 lysate: 44 ± 11%
[8]
  macroscopic levan synthesis, CFBP1390 lysate: able to limit levan synthesis
Lscγ [9]
  macroscopic levan production by Lscγ on agar sucrose plate: limits levan production
Jack bean α-mannosidase; already demonstrated in earlier work
  IC50: 34 µM
Jack bean α-mannosidase; relative potency with respect to monovalent counterpart per active unit, earlier work
  rp/n, Jack bean α-mannosidase: 10

## OCCc1cn(CCCCCCN2C[C@@H](O)[C@H](O)[C@H]2CO)nn1 [Compound 4]
Lscβ; pH 7.0
  % Residual activity (sucrose hydrolysis), Lscβ: 93 ± 12%
  IC50: > 1000 µM
Lscβ; pH 7, read-out: inhibitory activity on sucrose hydrolysis, Lscβ
  inhibition at 100 µM: ~7%
Lscβ; read-out: residual activity at 1 mM, Lscβ
  remaining activity at 1000 µM: 40%
Lscγ [1]; pH 7.0
  % Residual activity (sucrose hydrolysis), Lscγ: 126 ± 50%
  IC50: > 1000 µM
Lscγ [1]; pH 7.0, listed as PIS (4)
  % Residual activity (sucrose hydrolysis), Lscγ: does not inhibit
